Like-named read-outs stand apart in the source and are kept apart here. Bounds are passed on as bounds.

Series [1] in a line: Brain penetration in rats 1 hour after intravenous treatment. It counts as in vivo. To be noted: male, Han Wistar, rat, one hour after intravenous administration, 1 mg/kg. As for the experimental part: (§1) The pharmacokinetics of compound 4 were studied in male Han Wistar rats. The rats were treated intravenously and orally (n=3 for each dose route) with a compound 2 solution at the dose of 1 mg/kg, formulated in Lactic acid 150 mM pH 4.5 in water, 5% DMSO, 10% TWEEN 80. The rats were fitted with a jugular cannula for serial sampling, a full profile was acquired for each rat. Another group of rats (n=3) was treated intravenously and sacrificed after 1 hour harvesting arterial blood and brain to assess brain penetration. Plasma and brain extracts were quantitatively analyzed using a specific and sensitive LC-MS/MS bioanalytical method. Inter-individual variations between the three rats in each group were limited (CV for pharmacokinetic parameters was below 30%).

The target of the next series is T1, human OX2 receptor (Homo sapiens, UniProt O43614).
T1 sequence (O43614 1-444): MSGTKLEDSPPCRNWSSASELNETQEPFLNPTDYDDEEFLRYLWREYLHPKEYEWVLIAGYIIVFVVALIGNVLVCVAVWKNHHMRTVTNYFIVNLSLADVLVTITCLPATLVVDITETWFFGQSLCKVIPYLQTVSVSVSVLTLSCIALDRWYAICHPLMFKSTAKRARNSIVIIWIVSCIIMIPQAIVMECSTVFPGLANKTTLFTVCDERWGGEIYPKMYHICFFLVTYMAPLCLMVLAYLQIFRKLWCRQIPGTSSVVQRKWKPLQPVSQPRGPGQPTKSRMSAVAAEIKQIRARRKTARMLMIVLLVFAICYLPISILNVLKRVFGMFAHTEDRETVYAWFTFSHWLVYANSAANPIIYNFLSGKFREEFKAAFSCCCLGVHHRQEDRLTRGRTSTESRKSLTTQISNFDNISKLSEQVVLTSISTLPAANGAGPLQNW
Briefly: FLIPR measurement of intracellular calcium, antagonistic activity at OX2.

A short description of series [2]: Pharmacokinetics in male Han Wistar rats, intravenous and oral. It counts as in vivo. To be noted: 1 mg/kg. As for the experimental part: as §1
A further series has as its target T2, human OX1 receptor (Homo sapiens, UniProt O43613).
T2 sequence (O43613 1-425): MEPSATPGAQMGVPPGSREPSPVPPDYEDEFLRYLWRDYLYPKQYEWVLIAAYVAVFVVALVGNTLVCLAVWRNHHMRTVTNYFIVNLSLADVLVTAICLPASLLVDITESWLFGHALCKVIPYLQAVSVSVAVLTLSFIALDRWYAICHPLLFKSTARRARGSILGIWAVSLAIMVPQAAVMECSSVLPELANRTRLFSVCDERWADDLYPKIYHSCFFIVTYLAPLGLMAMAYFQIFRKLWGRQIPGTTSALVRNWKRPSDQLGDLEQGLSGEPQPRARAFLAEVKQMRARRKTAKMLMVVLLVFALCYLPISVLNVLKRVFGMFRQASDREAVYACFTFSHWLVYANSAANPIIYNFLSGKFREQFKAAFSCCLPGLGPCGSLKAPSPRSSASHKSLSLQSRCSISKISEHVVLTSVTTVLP
Nature of the series: FLIPR measurement of intracellular calcium, antagonistic activity at OX1. (In general: Calcium flux is commonly read through the fluorescence of an indicator in the cells.)

Where [3] appears, read: male, Han Wistar, plasma, rat, intravenous.

Description for human OX1 receptor: (§2) Thus the plate was loaded with the calcium dye (Fluo-4NW/probenecid in HBSS, Hepes 20 mM, pH 7,4; Invitrogen) at 37° C. for 60 min. Afterward the temperature was equilibrated at 22° C. for 15 min and the [Ca2+]i measured directly on the plate by using a fluorescent plate reader (CeliLux Perkin Elmer).
(§3) After 5 min CHO cells were activated with orexin-A, 3 nM while HEK-293 cells were activated with orexin-B, 10 nM.
(§4) The antagonistic activity has been expressed as pKb (co-logarithm of the apparent dissociation constant calculated by using the modified Cheng Prusoff equation).
Description for human OX2 receptor: as §2, §3, §4

In general, Kb refers to the equilibrium dissociation constant of an antagonist, usually derived from a functional assay. The AUC is concentration integrated over time. Usually bioavailability stands for dose-corrected exposure relative to a reference, in per cent. On to `Cc1cccc(NCC2CC3(CCN2C(=O)c2nc(C)sc2-c2ccccc2)CC3)n1` (single isomer, unassigned) [Compound 2, (2-methyl-5-phenylthiazol-4-yl)(5-((6-methylpyridin-2-ylamino)methyl)-6-azaspiro[2.5]octan-6-yl)methanone], for which the concentration at 1 h in series [1] (arterial plasma, read-out: average arterial plasmatic level) was determined as 126 ng/mL; in series [1] (brain, read-out: average total brain level), 83 ng/g. In series [1] (brain/plasma, read-out: Brain/plasma concentrations ratio), the Kp at 1 h turned out to be 0.66. The Kb at human OX2 receptor is > 10 µM; on human OX1 receptor (pKb OX1, CHO cells with human recombinant OX1, activated with orexin-A 3 nM, 1 nM-1 μM range, modified Cheng Prusoff), 6.31 nM. Besides, the “clearance as share of rat liver blood flow” value in series [2] (intravenous) came out at 40%. The AUC is ~740 ng·h/mL in series [2] (setting [3]) and ~360 ng·h/mL in series [2] (male, Han Wistar, plasma, rat, oral). Also, the clearance in series [2] (setting [3]) is ~5.33 mL/min. For the same compound, the Vd in series [2] (male, Han Wistar, plasma, rat, intravenous, read-out: average volume of distribution (Vss)) was determined as 0.33 L. Also, the bioavailability in series [2] (male, Han Wistar, plasma, rat, oral solution, read-out: absolute oral bioavailability) worked out at 50%. Also, the “oral AUC as share of AUC after intravenous administration” value in series [2] (rat) is on record as “about 50%”. Further, in series [2] (rat, oral), the “time of maximum concentration” value was ≤ 30 min. On human OX1 receptor (OX1 versus OX2, from the pKb table), the “selectivity against the OX1 receptor” value is “highly selective”.

The record behind these values is patent US8859608B2, “Spiro amino compounds suitable for the treatment of inter alia sleep disorders and drug addiction” (Rottapharm Biotech S.R.L., priority 2009, dated 2014).
